From US7872018B2, “Compounds and methods for kinase modulation, and indications therefor” (Plexxikon, Inc., priority 2006, dated 2011)

Columns and labels:
B-Raf V600E = B-Raf V600E (Homo sapiens, UniProt P15056, V600E); assay: B-Raf V600E kinase activity assay; assay type: biochemical; conditions: under the test conditions employed; read-out: IC50 toward kinase B-Raf V600E
Fms = target: T1, Fms (Homo sapiens, UniProt P07333); assay: Fms biochemical assay (AlphaScreen or 33P-ATP); conditions: under the test conditions employed; read-out: IC50 toward kinase Fms
T1 construct: purchased Upstate Biotech 14-551
Description: Each sample was at 5% DMSO.

B-Raf = B-Raf (Homo sapiens, UniProt P15056); assay: B-Raf kinase activity assay; assay type: biochemical; conditions: under the test conditions employed; read-out: IC50 toward kinase B-Raf
Kit = target: T2, Kit (Homo sapiens, UniProt P10721); assay: c-kit biochemical assay (AlphaScreen or 33P-ATP); conditions: under the test conditions employed; read-out: IC50 toward kinase Kit
T2 construct: P1332.N6 BI PTP KIT M552-K948-X COD; made in house; host or cells: E. coli BL21(DE3)RIL, co-expressed with PTP1B
Protocol: C-kit kinase was at 1 ng per sample.
The c-kit enzyme used in the above assay was either obtained from Cell Signaling Technology (Cat. #7754) or was prepared as follows: A plasmid encoding kit (DNA and encoded protein sequences shown below) was engineered using common polymerase chain reaction (PCR) methods. Complementary DNA cloned from various human tissues were purchased from Invitrogen, and these were used as substrates in the PCR reactions. Specific custom synthetic oligonucleotide primers were designed to initiate the PCR product, and also to provide the appropriate restriction enzyme cleavage sites for ligation with the plasmids. The entire sequence encoding the enzyme was made through a gene synthesis procedure, using custom synthetic oligonucleotides covering the entire coding sequence (Invitrogen, see below).

Flt1 = Flt1 (Homo sapiens, UniProt P17948); assay: Flt1 kinase activity assay; assay type: biochemical; conditions: under the test conditions employed; read-out: IC50 toward kinase Flt1
HGK = HGK (Homo sapiens, UniProt O95819); assay: HGK (MAP4K4) biochemical assay (AlphaScreen); conditions: under the test conditions employed; read-out: IC50 toward kinase HGK
Protocol: Substrate was 10 nM biotin-ERM (T567/T564/T558, Cell Signaling, Inc., cat#1344). MAP4K4 kinase was at 0.5 ng per sample. After incubation of the kinase reaction for 40 min at room temperature, 5 μl of donor beads and protein A acceptor beads (Perkin Elmer Life Science, cat#67606017) at final concentration 1 μg/ml in stop buffer (20 mM Tris, pH 7.4, 200 mM Nacl, 100 mM EDTA, 0.03% BSA) was added, along with Phospho-ERM Antibody (T567/T564/T558, Cell Signaling, Inc., cat#3141) at 1:1000 dilution. […] Phosphorylated substrate results in binding of the antibody which binds to protein A acceptor bead and association of the donor and acceptor beads is such that the signal correlates with kinase activity.

TrkA = target: T3, TrkA (Homo sapiens, UniProt P04629); assay: TrkA biochemical assay (AlphaScreen); conditions: under the test conditions employed; read-out: IC50 toward kinase TrkA
T3 construct: purchased Upstate Biotech 14-571
Protocol: Compounds tested were dissolved in DMSO (1 μL) and added to a white 384-well plate (Costar #3705). […] Each sample was at 5% DMSO. The plate was then incubated for 40 minutes at room temperature.

Kdr = Kdr (Homo sapiens, UniProt P35968); assay: Kdr kinase activity assay; assay type: biochemical; conditions: under the test conditions employed; read-out: IC50 toward kinase Kdr

Measured: IC50

Sequence of Kdr (P35968 20-1356): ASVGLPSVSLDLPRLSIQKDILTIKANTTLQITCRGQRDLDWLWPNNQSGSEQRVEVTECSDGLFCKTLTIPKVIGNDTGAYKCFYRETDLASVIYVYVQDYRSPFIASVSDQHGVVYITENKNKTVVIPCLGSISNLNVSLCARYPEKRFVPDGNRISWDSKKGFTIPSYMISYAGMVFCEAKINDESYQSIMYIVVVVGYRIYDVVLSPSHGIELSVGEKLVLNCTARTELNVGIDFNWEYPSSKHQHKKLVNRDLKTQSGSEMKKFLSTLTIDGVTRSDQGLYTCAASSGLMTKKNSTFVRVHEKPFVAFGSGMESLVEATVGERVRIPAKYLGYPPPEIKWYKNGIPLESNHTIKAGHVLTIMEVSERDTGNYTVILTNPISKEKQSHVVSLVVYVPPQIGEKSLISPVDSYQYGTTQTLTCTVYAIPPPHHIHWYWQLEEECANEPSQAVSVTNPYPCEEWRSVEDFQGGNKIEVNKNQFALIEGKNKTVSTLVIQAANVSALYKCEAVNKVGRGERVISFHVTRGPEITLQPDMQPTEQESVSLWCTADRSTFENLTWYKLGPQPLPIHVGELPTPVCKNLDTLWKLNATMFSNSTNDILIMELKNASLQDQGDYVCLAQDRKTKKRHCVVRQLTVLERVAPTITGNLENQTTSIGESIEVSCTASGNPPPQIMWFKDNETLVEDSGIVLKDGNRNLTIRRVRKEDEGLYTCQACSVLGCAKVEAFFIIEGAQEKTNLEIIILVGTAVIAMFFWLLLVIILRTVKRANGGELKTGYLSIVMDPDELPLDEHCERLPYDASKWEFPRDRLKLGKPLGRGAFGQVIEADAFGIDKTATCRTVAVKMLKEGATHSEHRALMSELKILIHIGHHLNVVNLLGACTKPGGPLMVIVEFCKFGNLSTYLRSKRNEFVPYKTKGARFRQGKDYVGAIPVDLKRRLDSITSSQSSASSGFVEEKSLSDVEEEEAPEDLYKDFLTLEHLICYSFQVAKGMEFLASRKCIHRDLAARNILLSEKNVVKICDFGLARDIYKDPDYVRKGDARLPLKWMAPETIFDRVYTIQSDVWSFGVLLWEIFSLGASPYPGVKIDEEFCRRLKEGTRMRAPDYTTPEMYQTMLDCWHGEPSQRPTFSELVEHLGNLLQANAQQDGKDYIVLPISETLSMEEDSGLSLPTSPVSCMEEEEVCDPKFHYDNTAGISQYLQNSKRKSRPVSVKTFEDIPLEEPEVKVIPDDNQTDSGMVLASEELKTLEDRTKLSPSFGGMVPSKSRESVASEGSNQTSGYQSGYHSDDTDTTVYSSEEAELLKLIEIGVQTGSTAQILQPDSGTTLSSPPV
T3 sequence (P04629 33-796): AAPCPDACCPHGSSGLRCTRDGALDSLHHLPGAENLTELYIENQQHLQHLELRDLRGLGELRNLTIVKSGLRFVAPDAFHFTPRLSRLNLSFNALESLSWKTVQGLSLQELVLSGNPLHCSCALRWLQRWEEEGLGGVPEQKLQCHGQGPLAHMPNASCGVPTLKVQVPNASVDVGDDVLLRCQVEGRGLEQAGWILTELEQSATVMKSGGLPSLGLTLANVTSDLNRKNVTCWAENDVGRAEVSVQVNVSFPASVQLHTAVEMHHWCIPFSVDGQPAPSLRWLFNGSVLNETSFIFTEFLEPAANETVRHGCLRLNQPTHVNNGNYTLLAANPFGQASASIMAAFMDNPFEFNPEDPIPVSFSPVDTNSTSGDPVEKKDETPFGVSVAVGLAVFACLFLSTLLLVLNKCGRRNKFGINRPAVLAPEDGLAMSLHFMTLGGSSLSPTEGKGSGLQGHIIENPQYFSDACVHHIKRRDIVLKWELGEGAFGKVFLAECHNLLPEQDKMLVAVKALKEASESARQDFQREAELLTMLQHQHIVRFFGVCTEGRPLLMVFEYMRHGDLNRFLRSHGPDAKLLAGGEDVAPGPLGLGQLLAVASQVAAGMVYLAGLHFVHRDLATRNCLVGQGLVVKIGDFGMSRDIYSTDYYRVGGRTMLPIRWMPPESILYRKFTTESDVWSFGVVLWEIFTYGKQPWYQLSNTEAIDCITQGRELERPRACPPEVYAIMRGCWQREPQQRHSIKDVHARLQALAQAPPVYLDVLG
Sequence of B-Raf (P15056 whole entry): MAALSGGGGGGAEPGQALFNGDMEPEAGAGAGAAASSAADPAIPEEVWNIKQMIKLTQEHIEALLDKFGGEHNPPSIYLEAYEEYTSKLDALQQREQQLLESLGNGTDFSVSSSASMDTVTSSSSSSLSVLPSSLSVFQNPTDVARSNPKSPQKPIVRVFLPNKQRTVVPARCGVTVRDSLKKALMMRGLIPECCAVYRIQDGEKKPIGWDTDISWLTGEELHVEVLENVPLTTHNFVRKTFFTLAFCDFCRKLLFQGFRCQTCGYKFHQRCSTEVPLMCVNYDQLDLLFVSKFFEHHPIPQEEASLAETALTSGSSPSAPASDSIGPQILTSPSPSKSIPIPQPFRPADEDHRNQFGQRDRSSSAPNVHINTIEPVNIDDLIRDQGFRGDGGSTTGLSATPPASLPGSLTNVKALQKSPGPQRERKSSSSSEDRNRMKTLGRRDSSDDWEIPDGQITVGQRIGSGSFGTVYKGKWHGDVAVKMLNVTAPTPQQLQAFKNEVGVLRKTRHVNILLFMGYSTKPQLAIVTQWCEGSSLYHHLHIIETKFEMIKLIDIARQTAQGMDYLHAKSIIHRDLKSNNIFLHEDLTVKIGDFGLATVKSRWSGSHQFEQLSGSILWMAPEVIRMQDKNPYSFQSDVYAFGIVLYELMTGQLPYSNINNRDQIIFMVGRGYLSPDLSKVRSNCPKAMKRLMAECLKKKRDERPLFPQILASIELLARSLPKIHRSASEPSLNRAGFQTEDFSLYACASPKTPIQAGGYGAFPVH
T2 sequence (P10721 552-948): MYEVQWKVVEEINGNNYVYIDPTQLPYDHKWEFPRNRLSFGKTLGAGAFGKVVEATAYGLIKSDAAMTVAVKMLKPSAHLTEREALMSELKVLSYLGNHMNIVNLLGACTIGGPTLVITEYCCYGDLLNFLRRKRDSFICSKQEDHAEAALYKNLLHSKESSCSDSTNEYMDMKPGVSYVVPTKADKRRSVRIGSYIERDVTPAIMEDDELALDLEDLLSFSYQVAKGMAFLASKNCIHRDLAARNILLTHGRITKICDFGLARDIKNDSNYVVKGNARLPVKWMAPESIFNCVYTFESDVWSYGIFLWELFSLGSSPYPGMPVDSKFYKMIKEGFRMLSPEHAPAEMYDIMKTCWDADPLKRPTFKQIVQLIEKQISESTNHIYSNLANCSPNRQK
T1 sequence (P07333 20-972): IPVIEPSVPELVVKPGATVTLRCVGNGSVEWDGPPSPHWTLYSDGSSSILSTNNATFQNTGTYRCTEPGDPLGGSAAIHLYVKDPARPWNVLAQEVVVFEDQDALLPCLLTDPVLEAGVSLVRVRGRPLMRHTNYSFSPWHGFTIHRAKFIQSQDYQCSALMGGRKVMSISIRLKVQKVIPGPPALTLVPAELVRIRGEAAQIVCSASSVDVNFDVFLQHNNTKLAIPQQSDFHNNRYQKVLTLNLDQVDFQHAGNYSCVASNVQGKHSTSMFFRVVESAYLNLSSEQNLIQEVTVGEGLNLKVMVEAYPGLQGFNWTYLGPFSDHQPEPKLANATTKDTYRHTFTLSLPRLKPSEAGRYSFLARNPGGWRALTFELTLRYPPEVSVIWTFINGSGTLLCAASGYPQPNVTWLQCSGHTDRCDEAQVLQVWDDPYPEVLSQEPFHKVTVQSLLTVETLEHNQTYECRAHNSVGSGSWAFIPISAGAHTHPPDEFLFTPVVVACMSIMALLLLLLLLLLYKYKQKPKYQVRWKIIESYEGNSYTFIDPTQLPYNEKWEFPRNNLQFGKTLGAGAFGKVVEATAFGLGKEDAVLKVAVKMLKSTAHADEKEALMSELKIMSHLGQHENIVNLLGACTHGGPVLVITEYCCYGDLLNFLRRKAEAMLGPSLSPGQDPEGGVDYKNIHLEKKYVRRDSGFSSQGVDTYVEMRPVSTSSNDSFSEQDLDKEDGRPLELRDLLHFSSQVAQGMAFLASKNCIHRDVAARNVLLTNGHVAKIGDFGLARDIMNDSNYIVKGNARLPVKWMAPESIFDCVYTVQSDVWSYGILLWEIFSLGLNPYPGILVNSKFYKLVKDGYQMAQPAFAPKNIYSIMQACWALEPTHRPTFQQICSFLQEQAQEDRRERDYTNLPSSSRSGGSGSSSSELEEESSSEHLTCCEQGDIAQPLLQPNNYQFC
Sequence of B-Raf V600E (P15056 whole entry V600E): as the sequence (P15056 whole entry) above, with V600E counted along it

O=C(c1c(Cl)ccc(OCc2ccc(Cl)cc2)c1Cl)c1c[nH]c2ncccc12 [P-1769, [2,6-Dichloro-3-(4-chloro-benzyloxy)-phenyl]-(1-pyrrolo[2,3-b]pyridin-3-yl)methanone]
≤ 10 µM: B-Raf V600E | Fms | B-Raf

Clc1ccc(COc2ccc(Cl)c(Cc3c[nH]c4ncccc34)c2Cl)cc1 [P-1768, 3-[2,6-Dichloro-3-(4-chloro-benzyloxy)-benzyl]-1H-pyrrolo[2,3-h]pyridine]
≤ 10 µM: B-Raf V600E | Fms | B-Raf

COc1cnc2[nH]cc(Cc3ccc(OCc4ccc(Cl)cc4)c(OC)c3)c2c1 [P-1531, 3-[4-(4-Chloro-benzyloxy)-3-methoxy-benzyl]-5-methoxy-1H-pyrrolo[2,3-b]pyridine]
≤ 10 µM: B-Raf V600E | Kit | Flt1

COc1cc(Cc2c[nH]c3ncccc23)ccc1OCc1ccc(Cl)cc1Cl [P-1568, 3-[4-(2,4-Dichloro-benzyloxy)-3-methoxy-benzyl]-1H-pyrrolo[2,3-b]pyridine]
≤ 10 µM: B-Raf V600E | Kit | Fms | B-Raf

COc1cnc2[nH]cc(Cc3cc(F)c(OCc4nc5ccccc5[nH]4)cc3F)c2c1 [P-2101, 2-[2,5-Difluoro-4-(5-methoxy-1H-pyrrolo[2,3-b]pyridin-3-ylmethyl)-phenoxymethyl]-1H-benzoimidazole]
not listed: B-Raf V600E | B-Raf
≤ 10 µM: all other assays above

COc1cnc2[nH]cc(Cc3cc(F)c(OCc4nc5ccccc5[nH]4)cc3Cl)c2c1 [P-2114, 2-[5-Chloro-2-fluoro-4-(5-methoxy-1H-pyrrolo[2,3-b]pyridin-3-ylmethyl)-phenoxymethyl]-1H-benzoimidazole]
≤ 10 µM: HGK | Kit | TrkA | Kdr | Fms

CS(=O)(=O)c1cnc2[nH]cc(Cc3cc(F)c(OCc4nc5ccccc5[nH]4)cc3F)c2c1 [P-2170, 2-[2,5-Difluoro-4-(5-methanesulfonyl-1H-pyrrolo[2,3-b]pyridin-3-ylmethyl)-phenoxymethyl]-1H-benzoimidazole]
≤ 10 µM: HGK | TrkA | Fms | B-Raf | Flt1

Clc1ccc(COc2ccc(Cc3c[nH]c4ncccc34)cc2)cc1 [P-1462, 3-[4-(4-Chloro-benzyloxy)-benzyl]-1H-pyrrolo[2,3-b]pyridine]
≤ 10 µM: B-Raf V600E | Kit | Fms | Flt1

COc1cc(Cc2c[nH]c3ncc(S(C)(=O)=O)cc23)c(F)cc1OCc1nc2ccccc2[nH]1 [P-2186, 2-[5-Fluoro-4-(5-methanesulfonyl-1H-pyrrolo[2,3-b]pyridin-3-ylmethyl)-2-methoxy-phenoxymethyl]-1H-benzoimidazole]
≤ 10 µM: HGK | B-Raf V600E | TrkA | Fms | B-Raf

O=C(c1c(F)ccc(OCc2ccccc2)c1F)c1c[nH]c2ncc(Cl)cc12 [P-1825, (3-Benzyloxy-2,6-difluoro-phenyl)-(5-chloro-1H-pyrrolo[2,3-b]pyridin-3-yl)-methanone]
≤ 10 µM: B-Raf

COCCOc1ccc(F)c(Cc2c[nH]c3ncccc23)c1Cl [P-2158, 3-[2-Chloro-6-fluoro-3-(2-methoxy-ethoxy)-benzyl]-1H-pyrrolo[2,3-b]pyridine]
≤ 10 µM: Kit | Kdr | Fms

COc1cc(Cc2c[nH]c3ncccc23)ccc1OCc1ccc(C(F)(F)F)cc1 [P-1721, 3-[3-Methoxy-4-(4-trifluoromethyl-benzyloxy)-benzyl]-1H-pyrrolo[2,3-b]pyridine]
≤ 10 µM: B-Raf V600E | Fms | B-Raf

Cn1cc(-c2cnc3[nH]cc(Cc4c(F)ccc(OCC(F)(F)F)c4Cl)c3c2)cn1 [P-2146, 3-[2-Chloro-6-fluoro-3-(2,2,2-trifluoro-ethoxy)-benzyl]-5-(1-methyl-1H-pyrazol-4-yl)-1H-pyrrolo[2,3-b]pyridine]
not listed: B-Raf V600E | B-Raf
≤ 10 µM: all other assays above

COc1cc(Cc2c[nH]c3ncccc23)ccc1OCc1ccccc1 [P-1613, 3-(4-benzyloxy-3-methoxy-benzyl)-1H-pyrrolo[2,3-b]pyridine]
≤ 10 µM: B-Raf V600E | Fms | B-Raf | Flt1

COc1cc(Cc2c[nH]c3ncc(Cl)cc23)ccc1OCc1ccc(Cl)cc1 [P-1532, 5-Chloro-3-[4-(4-chloro-benzyloxy)-3-methoxy-benzyl]-1H-pyrrolo[2,3-b]pyridine]
≤ 10 µM: B-Raf V600E | Kit | Fms | B-Raf | Flt1

Fc1cc(OCc2nc3ccccc3[nH]2)cc(F)c1Cc1c[nH]c2ncc(Cl)cc12 [P-2105, 2-[4-(5-Chloro-1H-pyrrolo[2,3-b]pyridin-3-ylmethyl)-3,5-difluoro-phenoxymethyl]-1H-benzoimidazole]
≤ 10 µM: HGK | Kit | Kdr | Fms

Fc1cc(OCc2nc3ccccc3[nH]2)c(F)cc1Cc1c[nH]c2ncc(Cl)cc12 [P-2100, 2-[4-(5-Chloro-1H-pyrrolo[2,3-b]pyridin-3-ylmethyl)-2,5-difluoro-phenoxymethyl]-1H-benzoimidazole]
not listed: Flt1
≤ 10 µM: all other assays above

COc1cnc2[nH]cc(C(=O)c3c(F)ccc(OCC(F)(F)F)c3Cl)c2c1 [P-2149, [2-Chloro-6-fluoro-3-(2,2,2-trifluoro-ethoxy)-phenyl]-(5-methoxy-1H-pyrrolo[2,3-b]pyridin-3-yl)-methanone]
≤ 10 µM: HGK | Kit | Kdr | Fms | Flt1

COc1cc(Cc2c[nH]c3ncc(Cl)cc23)c(F)cc1OCc1nc2cc(S(=O)(=O)N(C)C)ccc2[nH]1 [P-2173, 2-[4-(5-Chloro-1H-pyrrolo[2,3-b]pyridin-3-ylmethyl)-5-fluoro-2-methoxy-phenoxymethyl]-1H-benzoimidazole-5-sulfonic acid dimethylamide]
≤ 10 µM: HGK | Kit | TrkA | Fms | B-Raf

O=C(c1c(F)ccc(OCc2ccccc2)c1F)c1c[nH]c2ncccc12 [P-1802, (3-Benzyloxy-2,6-difluoro-phenyl)-(1H-pyrrolo[2,3-b]pyridin-3-yl)-methanone]
≤ 10 µM: B-Raf V600E | Fms | B-Raf

COCCOc1cnc2[nH]cc(Cc3cc(F)c(OCc4nc5ccccc5[nH]4)cc3F)c2c1 [P-2176, 2-{2,5-Difluoro-4-[5-(2-methoxy-ethoxy)-1H-pyrrolo[2,3-b]pyridin-3-ylmethyl]-phenoxymethyl}-1H-benzoimidazole]
≤ 10 µM: HGK | Kit | TrkA | Kdr | Fms

COc1ccc(COc2ccc(Cc3c[nH]c4ncccc34)cc2OC)cc1 [P-1569, 3-[3-Methoxy-4-(4-methoxy-benzyloxy)-benzyl]-1H-pyrrolo[2,3-b]pyridine]
≤ 10 µM: B-Raf V600E | Kit | Fms | B-Raf | Flt1

COc1cc(Cc2c[nH]c3ncc(Cl)cc23)c(Cl)cc1OCc1ccc(Cl)cc1F [P-2167, 5-Chloro-3-[2-chloro-4-(4-chloro-2-fluoro-benzyloxy)-5-methoxy-benzyl]-1H-pyrrolo[2,3-b]pyridine]
≤ 10 µM: Kit | Kdr | Fms

COc1cc(Cc2c[nH]c3ncccc23)cc(Cl)c1OCc1ccc(Cl)cc1 [P-1616, 3-[3-Chloro-4-(4-chloro-benzyloxy)-5-methoxy-benzyl]-1H-pyrrolo[2,3-b]pyridine]
≤ 10 µM: Fms | B-Raf
